From patent US12435062B2, “Amide compounds and uses thereof” (HUTCHISON MEDIPHARMA LIMITED, priority 2020, dated 2025)

Legend:
[1] = target: Recombinant human CSF1R kinase (Homo sapiens (Human), UniProt P07333); assay type: biochemical; conditions: Z-LYTE Tyr 1 peptide substrate
Experimental: Measurement of CSF1R Kinase Activity at Molecular Level
1. Reagents and materials:
• Z-LYTE™ Tyr 1 peptide substrate: Invitrogen, PV3190; • 5× kinase buffer: Invitrogen, PV3189; • 10 mM ATP: Invitrogen, PV3227; • Development reagent B: Invitrogen, PV3295; • Development buffer: Invitrogen, P3127; • Stopping solution: Invitrogen, P3094; • Recombinant human CSF1R kinase: Invitrogen, PR4598A; • 384 well plate, black: Corning, 3575; Envision: Perkin Elmer. 2. Preparation of reaction solutions
1) 1.33× kinase buffer: 5× kinase buffer was diluted to a 1.33× kinase buffer with ddH2O.
2) Dilution of a 4× test compound: The test compound was diluted in gradient to 4-fold the reaction concentration and the concentration of DMSO was kept at 8%. The final concentration of the compound in reaction was: 1, 0.33, 0.11, 0.037, 0.012, 0.004, 0.0014, 0.00046 μM, and the final concentration of DMSO was 2%.
3) A mixture of kinase/peptide substrate: In 1.33× kinase buffer, the kinase and Z-LYTE™ Tyr 1 peptide substrate were diluted to 0.12 μg/mL and 4 μM, respectively, to prepare a mixture of kinase/peptide substrate. The mixture was mixed gently with a pipette.
4) A phosphorylated peptide substrate solution (PP solution): 0.4 μL of Z-LYTE™ Tyr1 phosphorylated peptide substrate was added to 99.6 μL of 1.33× kinase buffer.
5) ATP solution: 10 mM of ATP was diluted to 760 μM with 1.33× kinase buffer to prepare ATP solution.
6) Development solution: Development reagent B was diluted with Development buffer at a ratio of 1:200.
1) Kinase reaction (10 μL system)
2.5 μL of 4× test compound was added to each reaction well of the 384 plate, and the corresponding volume of 8% DMSO was added to the control well. The plate was placed on ice. 5 μL of a mixture of kinase/peptide substrate, 2.5 μL of kinase buffer and ATP solution were successively added to each well. Three control groups were set up: Group C1 contains only kinase buffer, group C2 contains the mixture of kinase/peptide substrate, kinase buffer and ATP, and group C3 contains 5 μL of PP solution. After adding the reaction components, the 384-well plate was sealed and incubated at 25-30° C. for 1 h in dark.
5 μL of Development solution was added to each well, sealed and incubated at 25-30° C. for another 1 h in dark.
3) Reaction stopping and plate reading
5 μL of stopping solution was added to each well. The Coumarin value (excitation at 400 nm, emission at 445 nm) and Fluorescein value (excitation at 400 nm, emission at 520 nm) were measured, respectively.
ER (emission ratio): Coumarin emission read-out (445 nm)/Fluorescein emission read-out (520 nm); • C3 445 nm: 100% phosphorylated Coumarin emission read-out; • C3 520 nm: 100% phosphorylated Fluorescein emission read-out; • C1 445 nm: 0% phosphorylated Coumarin emission read-out; • C1 520 nm: 0% phosphorylated Fluorescein emission read-out. Inhibition rate % (IR)=[1−% phosphorylation ratetest sample/100% phosphorylation ratecontrol]×100%
% phosphorylation ratetest sample: phosphorylation rate of the test compound; • 100% phosphorylation ratecontrol: phosphorylation rate of C3 control group.
5. IC50 values: calculated by using software XL-Fit™ (version 5.3) supplied by ID Business Solutions (Guildford, UK), which is an additional software to Microsoft Excel.

Ba/F3^BCR-FMS-11 cells = assay: Cell proliferation experiment (Ba/F3^BCR-FMS-11, cckit-8); assay type: cell-based, mouse; conditions: Mus musculus, Ba/F3^BCR-FMS-11 cell proliferation
Experimental: Cell Proliferation Experiment
Ba/F3^BCR-FMS-11, mouse primary B lymphocytes stably expressing the BCR-FMS fusion gene. The cells were cultured in an RPMI 1640 medium containing 10% FBS.
(§1) 2. Reagents and instruments
• cckit-8 kit: Dojindo, 9 CK04; • Envision: Perkin Elmer; • Cell culture plate: Facol, 9353027. 3. Experimental steps
The BCR-FMS fusion gene was transfected into Ba/F3 cells, and the cell line Ba/F3^BCR-FMS-11 that stably expresses BCR-FMS and grows depending on CSF-1R was screened. Ba/F3^BCR-FMS-11 cell proliferation experiments is completed by using the Cell Counting kit cckit-8 in a 96-well plate. In a 96-well plate, 5000/well of Ba/F3^BCR-FMS-11 cells were inoculated at 100 μL/well. […] 10 μL of the compound dilutions with the above 8 concentrations were added to the culture cell wells. The culture was incubated in a 37° C. and 5% CO2 cell incubator for 72 hours. 10 μL of Cell Counting kit cckit-8 detection reagent was added to each well, and incubated at 37° C. and 5% CO2 in a cell incubator for another 1 h. The optical density absorption value at 450 nm of each well was detected by using Perkin Elmer Envision instrument.
wherein • Drug-treated well read-out: indicating the optical density signal of a cell well with the test compound treatment. • Cell well read-out: indicating the optical density signal of a cell well not treated with the test compound (only 0.5% DMSO). • Background read-out: indicating the optical density signal of a well with the cell medium. 5. Calculation of IC50: obtained by using XL-Fit 5.3 software. 6. Test results

[2] = target: CSF1R phosphorylation in THP-1 cells (Homo sapiens (Human), UniProt P07333); assay: Detection of CSF1R phosphorylation activity at cell level (THP-1, M-CSF stimulated, ELISA); assay type: cell-based; conditions: p-CSF1R ELISA, compound 60 min, 300 ng/mL M-CSF 1 min
Sequence of CSF1R phosphorylation in THP-1 cells (P07333 20-972): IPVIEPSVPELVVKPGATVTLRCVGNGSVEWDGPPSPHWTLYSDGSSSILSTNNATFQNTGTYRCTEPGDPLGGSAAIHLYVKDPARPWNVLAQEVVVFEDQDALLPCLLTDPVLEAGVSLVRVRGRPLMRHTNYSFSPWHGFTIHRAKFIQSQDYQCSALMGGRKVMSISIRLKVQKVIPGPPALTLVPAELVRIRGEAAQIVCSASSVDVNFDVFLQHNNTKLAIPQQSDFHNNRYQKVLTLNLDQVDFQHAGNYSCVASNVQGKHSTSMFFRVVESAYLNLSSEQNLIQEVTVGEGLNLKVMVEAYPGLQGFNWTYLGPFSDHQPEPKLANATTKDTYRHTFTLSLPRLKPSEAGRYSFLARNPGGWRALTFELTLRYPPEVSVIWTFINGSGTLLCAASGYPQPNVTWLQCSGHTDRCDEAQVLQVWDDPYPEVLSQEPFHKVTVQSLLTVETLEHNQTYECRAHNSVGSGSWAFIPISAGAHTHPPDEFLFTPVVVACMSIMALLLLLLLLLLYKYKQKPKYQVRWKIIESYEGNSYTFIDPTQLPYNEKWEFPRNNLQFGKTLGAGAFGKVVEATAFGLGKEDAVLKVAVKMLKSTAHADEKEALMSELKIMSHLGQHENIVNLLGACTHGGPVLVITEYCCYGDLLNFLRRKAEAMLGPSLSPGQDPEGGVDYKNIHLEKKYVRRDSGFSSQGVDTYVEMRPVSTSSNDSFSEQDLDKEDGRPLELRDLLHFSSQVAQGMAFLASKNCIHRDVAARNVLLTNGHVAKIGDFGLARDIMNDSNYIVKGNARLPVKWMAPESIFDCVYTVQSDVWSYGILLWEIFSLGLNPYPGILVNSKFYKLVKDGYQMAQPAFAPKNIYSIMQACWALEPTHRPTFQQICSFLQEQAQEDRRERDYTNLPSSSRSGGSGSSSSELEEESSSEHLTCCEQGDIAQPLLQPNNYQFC
Experimental: Detection of CSF1R Phosphorylation Activity at Cell Level
THP-1 (ATCC), human acute monocytic leukemia cells. The cells were cultured in an RPMI 1640 medium containing 10% FBS.
as §1
• Human phosphorylation-CSF1R ELISA kit: R&D, #DYC3268-2; • RPMI 1640 culture solution: GIBCO, 910491; • Human M-CSF recombinant cytokine: R&D, 9216-MC-500; • Cell lysis buffer: Cell Signal, 99803S; • 1×PBS buffer (1 L): 8.0 g of NaCl, 0.2 g of KCl, 3.58 g of Na2HPO4-12H2O, 0.24 g of KH2PO4 were dissolved in 1 L of dd H2O, and the pH was adjusted to 7.4; • Blocking solution: PBS buffer containing 1% BSA; • PBST washing liquid: PBS buffer containing 0.05% Tween-20; • Chromogenic substrate: R&D, #DY999; • 2N H2SO4; • Microwell plate reader: Labsystems Multiskan K3: Thermo; Envision: Perkin Elmer; • ELISA plate: Corning, #9018; • Cell culture plate: Facol, #353027. 3. Treatment of cells and preparation of lysis buffer
THP-1 cells were resuspended in RPMI-1640 culture solution containing 2% FBS, and the culture was added to a 96-well plate at a density of 5×10^4/well, 50 μL/well, and cultured in a cell incubator at 5% CO2 and 37° C. overnight; The test compound was diluted with a serum-free RPMI-1640 medium to 3, 1.1, 0.37, 0.12, 0.04, 0.014, 0.005 and 0.002 μM, and the concentration of DMSO was 5%. 5 μL of the diluted compound was added to the 50 μL cell culture system, the culture was cultured in a 5% CO2, 37° C. cell incubator for 60 min, 300 ng/mL of M-CSF was added to the cells, and the mixture was stimulated in the 37° C. cell incubator for 1 min, added 50 μL of cell lysis buffer, and stored in a refrigerator at −80° C.
100 μL/well of the p-CSF1R capture antibody diluted to 0.8 μg/mL with PBS was added to the ELISA plate, and the plate was coated on a shaker at room temperature overnight. The culture was washed with PBST, and then added blocking solution and incubated at room temperature for 2 h. The culture was washed with PBST, added 90 μL of cell lysis buffer, and incubated on a shaker at 25° C. for 2 h. The plate was washed with PBST three times, added 100 μL of anti-p-tyrosine-HRP detection antibody diluted with 0.1% PBS-BSA diluent, and incubated on a shaker at 25° C. for 2 h. The plate was washed with PBST washing liquid, added 100 μL of chromogenic substrate and incubated at room temperature for 10-20 min. The reaction was stopped by adding 50 μL of 2N H2SO4. The optical density signal (450/570 nm) of each well was detected in Labsystems Multiskan K3 or Envision.
wherein • Drug-treated well read-out: indicating the optical density signal of a cell well with the test compound treatment. • Background read-out: indicating the optical density signal of a well without cells but with cell lysis buffer. • Cell well read-out: indicating the optical density signal of a cell well not treated with the compound. 6. Calculation of IC50: obtained by using XL-Fit 5.3 software. 7. Test results

Sequence of Recombinant human CSF1R kinase (P07333 20-972): as above

IC50 [1]	IC50 (Ba/F3^BCR-FMS-11 cells; 72 h)	Structure (SMILES)	further results
217 nM	–	CC(C)n1c(N(C)C)ccc(C(=O)Nc2ccc(Oc3ccnc(-c4cnn(C)c4)c3)cn2)c1=O [Compound 1, 6-(dimethylamino)-1-isopropyl-N-(5-((2-(1-methyl-1H-pyrazol-4-yl)pyridin-4-yl)oxy)pyridin-2-yl)-2-oxo-1,2-dihydropyridine-3-carboxamide]	–
–	–	CN(C)c1ccc(C(=O)Nc2ccc(Oc3ccnc(-c4cnn(C)c4)c3)cn2)c(=O)n1C [Compound 2, 6-(dimethylamino)-1-methyl-N-(5-((2-(1-methyl-1H-pyrazol-4-yl)pyridin-4-yl)oxy)pyridin-2-yl)-2-oxo-1,2-dihydropyridine-3-carboxamide]	IC50 (Ba/F3^BCR-FMS-11 cells; 72 hours): 11 nM
5 nM	12 nM	COc1ccc(C(=O)Nc2ccc(Oc3ccnc(-c4cnn(C)c4)c3)cn2)c(=O)n1C [Compound 3, 6-methoxy-1-methyl-N-(5-((2-(1-methyl-1H-pyrazol-4-yl)pyridin-4-yl)oxy)pyridin-2-yl)-2-oxo-1,2-dihydropyridine-3-carboxamide]	IC50 [2]: 63 nM
66 nM	60 nM	Cn1cc(Nc2cc(Oc3cnc(NC(=O)c4cccn(C)c4=O)c(F)c3)ccn2)cn1 [Compound 4, N-(3-fluoro-5-((2-((1-methyl-1H-pyrazol-4-yl)amino)pyridin-4-yl)oxy)pyridin-2-yl)-1-methyl-2-oxo-1,2-dihydropyridine-3-carboxamide]	IC50 [2]: 28 nM
22 nM	47 nM	Cc1ncc(C(=O)Nc2ccc(Oc3cc(-c4cnn(C)c4)ncn3)cn2)c(=O)n1C [Compound 5, 1,2-dimethyl-N-(5-((6-(1-methyl-1H-pyrazol-4-yl)pyrimidin-4-yl)oxy)pyridin-2-yl)-6-oxo-1,6-dihydropyrimidine-5-carboxamide]	IC50 [2]: 11 nM
7 nM	15 nM	CC(C)n1cccc(C(=O)Nc2ccc(Oc3ccnc(-c4cnn(C)c4)n3)cn2)c1=O [Compound 6, 1-isopropyl-N-(5-((2-(1-methyl-1H-pyrazol-4-yl)pyrimidin-4-yl)oxy)pyridin-2-yl)-2-oxo-1,2-dihydropyridine-3-carboxamide]	IC50 [2]: 21 nM
67 nM	39 nM	Cc1ncc(C(=O)Nc2ccc(Oc3ccnc(-c4cnn(C)c4)n3)cn2)c(=O)n1C [Compound 7, 1,2-dimethyl-N-(5-((2-(1-methyl-1H-pyrazol-4-yl)pyrimidin-4-yl)oxy)pyridin-2-yl)-6-oxo-1,6-dihydropyrimidine-5-carboxamide]	IC50 [2]: 25 nM
–	44 nM	Cc1ncc(C(=O)Nc2ccc(Oc3ccnc(-c4cnn(CCN(C)C)c4)c3)cn2)c(=O)n1C [Compound 14]	–
274 nM	–	Cc1cc(Oc2ccnc(-c3cnn(C)c3)c2)ccc1NC(=O)c1cccn(C(C)C)c1=O [Compound 19]	–
–	10 nM	Cn1cc(-c2cc(Oc3ccc(NC(=O)c4cnc5ccccn5c4=O)nc3)ccn2)cn1 [Compound 26]	–
173 nM	–	Cn1cccc(C(=O)Nc2ccc(Oc3ccnc(-n4cncn4)c3)cn2)c1=O [Compound 29]	–
689 nM	–	Cc1ncc(C(=O)Nc2ccc(Oc3ccnc(-c4cncn4C)c3)cn2)c(=O)n1C [Compound 31]	–
113 nM	–	Cc1cc(Nc2cc(Oc3ccc(NC(=O)c4cnc(C)n(C)c4=O)nc3)ccn2)ccn1 [Compound 35]	–
169 nM	–	Cn1cccc(C(=O)Nc2ccc(Oc3ccnc(-n4cccn4)c3)cn2)c1=O [Compound 37]	–
–	46 nM	Cn1cc(-c2cc(Oc3ccc(NC(=O)c4cn(C)c(=O)n(C)c4=O)nc3)ccn2)cn1 [Compound 40]	–
135 nM	–	COc1cc(Oc2ccnc(-c3cnn(C)c3)c2)ccc1NC(=O)c1cnc(C)n(C)c1=O [Compound 53]	–
121 nM	–	CC(C)n1ccnc(C(=O)Nc2ccc(Oc3ccnc(-c4cnn(C)c4)c3)cn2)c1=O [Compound 59]	–
–	12 nM	Cn1cc(-c2cc(Oc3ccc(NC(=O)c4cnc(C5CC5)n(C)c4=O)nc3)ccn2)cn1 [Compound 74]	–
–	6 nM	Cn1cc(-c2cc(Oc3ccc(NC(=O)c4cccn(CC(F)(F)F)c4=O)nc3)ccn2)cn1 [Compound 87]	–
–	567 nM	COc1cc(Oc2ccnc(-c3cnn(C)c3)c2)cnc1NC(=O)c1cccn(C(C)C)c1=O [Compound 92, 1-isopropyl-N-(3-methoxy-5-((2-(1-methyl-1H-pyrazol-4-yl)pyridin-4-yl)oxy)pyridin-2-yl)-2-oxo-1,2-dihydropyridine-3-carboxamide]	–
–	142 nM	Cn1cccc(C(=O)Nc2ccc(Oc3ccnc(-c4cnn(CCO)c4)c3)cn2)c1=O [Compound 94, N-(5-((2-(1-(2-hydroxyethyl)-1H-pyrazol-4-yl)pyridin-4-yl)oxy)pyridin-2-yl)-1-methyl-2-oxo-1,2-dihydropyridine-3-carboxamide]	–
484 nM	–	CCN1CCN(c2cc(Oc3ccc(NC(=O)c4cccn(C(C)C)c4=O)nc3)ccn2)CC1 [Compound 98, N-(5-((2-(4-ethylpiperazin-1-yl)pyridin-4-yl)oxy)pyridin-2-yl)-1-isopropyl-2-oxo-1,2-dihydropyridine-3-carboxamide]	–
177 nM	–	Cc1ncc(C(=O)Nc2ccc(Oc3ccnc(-c4cnn(CCN)c4)c3)cn2)c(=O)n1C [Compound 109, N-(5-((2-(1-(2-aminoethyl)-1H-pyrazol-4-yl)pyridin-4-yl)oxy)pyridin-2-yl)-1,2-dimethyl-6-oxo-1,6-dihydropyrimidine-5-carboxamide]	–
111 nM	–	CNCCn1cc(-c2cc(Oc3ccc(NC(=O)c4cnc(C)n(C)c4=O)nc3)ccn2)cn1 [Compound 110]	–
467 nM	–	Cc1ncc(C(=O)Nc2ccc(Oc3ccnc(-c4nccs4)c3)cn2)c(=O)n1C [Compound 119]	–
413 nM	–	Cc1ncc(C(=O)Nc2ccc(Oc3ccnc(C4=CCCCC4)c3)cn2)c(=O)n1C [Compound 121]	–
55 nM	–	Cc1ccc(-c2cc(Oc3ccc(NC(=O)c4cnc(C)n(C)c4=O)nc3)ccn2)o1 [Compound 122]	–
–	526 nM	Cn1cc(-c2cc(Oc3ccc(NC(=O)c4cnc(O)n(C)c4=O)nc3)ccn2)cn1 [Compound 134, 2-hydroxy-1-methyl-N-(5-((2-(1-methyl-1H-pyrazol-4-yl)pyridin-4-yl)oxy)pyridin-2-yl)-6-oxo-1,6-dihydropyrimidine-5-carboxamide]	–
12 nM	7 nM	Cc1ncc(C(=O)Nc2ccc(Oc3ccnc(-c4cn(C)nc4O)c3)cn2)c(=O)n1C [Compound 135, N-(5-((2-(3-hydroxy-1-methyl-1H-pyrazol-4-yl)pyridin-4-yl)oxy)pyridin-2-yl)-1,2-dimethyl-6-oxo-1,6-dihydropyrimidine-5-carboxamide]	–
